The results in this text go back to US9373800B2, “Organic light emitting element having lithium—boron complex” (CANON KABUSHIKI KAISHA, priority 2014, dated 2016).

The nature of this data set: Evaluation of stability to water (100 nm deposited film, water dropped, thickness step height meter). Type of data set: physicochemical. Conditions: for State of the film after water was dropped, After 1 min / State of the film after water was dropped, After 10 min: 100 nm film deposited on glass substrate, water dropped onto film, Alpha-Step; for State of the film after water was dropped, After 1 min: after 1 minute; for Dissolution of the film in water (text summary of Table 1): film soaked in water. On the procedure: Water was dropped onto the films, and the states of the films were examined after 1 minute and 10 minutes with a thickness step height meter (Alpha-Step).

Regarding `[Li+].c1cnn([B-](n2cccn2)(n2cccn2)n2cccn2)c1` [Comparative compound 3], the “State of the film after water was dropped, After 1 min” value was “Partially dissolved”; the “State of the film after water was dropped, After 10 min” value is reported as “Dissolved”; the “Dissolution of the film in water (text summary of Table 1)” value is “gradually dissolved”.
For `[Cs+].[F-]` [Comparative compound 2, cesium fluoride], in that order: “Dissolved”, “Dissolved” and “dissolved immediately”.
On to `[F-].[Li+]` [Comparative compound 1, lithium fluoride], for which the “State of the film after water was dropped, After 1 min” value is “Dissolved”; the “State of the film after water was dropped, After 10 min” value is on record as “Dissolved”; the “Dissolution of the film in water (text summary of Table 1)” value is recorded as “dissolved immediately”.
